Measured values as given in patent US20230212549A1, “COMPOUNDS COMPRISING A […] LIGAND AND USE THEREOF” (priority 2021, published 2023).
Numbered stars: 1 amine (or outer) side, 2 acyl side, 3 side chain; on linkers, the order of the positions; unused ones are H or OH. Bridge positions count the residues as written; N and C are the ends. Square brackets hold non-standard residues; d marks the D form. Peptide text beside a SMILES is read from it. * marks the point of attachment. ξ: configuration not given here. TBMB(SCH2CH2NH-DOTA) = O=C(O)CN1CCN(CC(=O)O)CCN(CC(=O)NCCSCc2cc(C[*:1])cc(C[*:2])c2)CCN(CC(=O)O)CC1; X13 = O=C(O)CN1CCN(CC(=O)O)CCN(CC(=O)N2CCN(Cc3cc(C[*:1])cc(C[*:2])c3)CC2)CCN(CC(=O)O)CC1; X12 = O=C(O)CN1CCN(CC(=O)O)CCN(CC(=O)NCCCOCCOCCOCCCN*)CCN(CC(=O)O)CC1; X10 = O=C(O)CN1CCN(CC(=O)O)CCN(C(CCC(=O)NCCCOCCOCCOCCCN*)C(=O)O)CC1; DOTA = O=C(O)CN1CCN(CC(=O)O)CCN(CC(=O)*)CCN(CC(=O)O)CC1; Bip = N[C@@H](Cc1ccc(-c2ccccc2)cc1)C(=O)O; Oic = O=C(O)[C@@H]1C[C@@H]2CCCC[C@@H]2N1; mXylylene = c1cc(C[*:1])cc(C[*:2])c1; PEG6 = NCCOCCOCCOCCOCCOCCOCCC(=O)O; Pentanesulfonyl = CCCCCS(=O)(=O)*; NMeF = CN[C@@H](Cc1ccccc1)C(=O)O; Tic = O=C(O)[C@@H]1Cc2ccccc2CN1; Suc = O=C(CCC(=O)[*:2])[*:1]; Nle = CCCC[C@H](N)C(=O)O; X2 = NCCNCC(CNCCN)C(=O)*; Hexanoyl = CCCCCC(=O)*; Inp = O=C(O)C1CCNCC1; ξC = NC(CS)C(=O)O; βAla = NCCC(=O)O

How the values were obtained:
[1] = target: T1, FAP-expressing human WI-38 fibroblasts (Homo sapiens, UniProt Q12884); assay: Competitive FACS binding assay
T1 construct: FAP-expressing human WI-38 fibroblasts (ECACC) were cultured in EMEM; host or cells: WI-38 human fibroblasts
Method: Cells were analyzed in an Attune NxT flow cytometer. […] […].
Cells were analyzed in an Attune NxT flow cytometer. […]

[2] = target: Human recombinant FAP (Homo sapiens, UniProt Q12884); assay: FRET-based FAP protease activity assay; assay type: biochemical; design: purchased R&D systems 3715-SE
[3] = pIC50 Category (Activity), FRET-based FAP protease activity assay, recombinant human FAP, 37° C.
[4] = pIC50 Category (activity), Recombinant human FAP
[5] = pIC50 Category (Activity), FRET-peptide substrate, 37° C.

Chain of Human recombinant FAP (Q12884 whole entry): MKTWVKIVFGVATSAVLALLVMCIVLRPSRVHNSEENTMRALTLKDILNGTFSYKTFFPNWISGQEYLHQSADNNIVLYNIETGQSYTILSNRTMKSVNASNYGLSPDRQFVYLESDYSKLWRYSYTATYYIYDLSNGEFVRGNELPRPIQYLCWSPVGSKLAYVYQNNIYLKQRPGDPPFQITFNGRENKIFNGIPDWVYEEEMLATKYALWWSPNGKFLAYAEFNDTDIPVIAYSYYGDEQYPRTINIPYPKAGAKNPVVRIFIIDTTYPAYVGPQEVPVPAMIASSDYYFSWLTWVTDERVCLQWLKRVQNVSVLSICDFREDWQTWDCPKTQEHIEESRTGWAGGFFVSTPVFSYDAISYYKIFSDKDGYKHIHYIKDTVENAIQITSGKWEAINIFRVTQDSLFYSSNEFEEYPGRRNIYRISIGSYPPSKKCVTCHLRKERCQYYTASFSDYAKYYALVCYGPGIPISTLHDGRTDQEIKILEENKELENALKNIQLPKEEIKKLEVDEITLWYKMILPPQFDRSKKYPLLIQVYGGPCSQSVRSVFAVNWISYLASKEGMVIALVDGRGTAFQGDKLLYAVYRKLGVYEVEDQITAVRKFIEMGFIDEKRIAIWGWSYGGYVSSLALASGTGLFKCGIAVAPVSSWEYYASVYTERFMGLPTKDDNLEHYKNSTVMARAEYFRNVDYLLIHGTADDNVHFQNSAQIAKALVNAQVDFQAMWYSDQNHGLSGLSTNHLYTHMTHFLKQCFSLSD
T1 sequence (Q12884 whole entry): as above

| SMILES | IC50 [1] | IC50 [2, 3] | IC50 [2, 4] | IC50 [2, 5] |
| --- | --- | --- | --- | --- |
| CC(=O)N[C@@H](CCCC(=O)O)C(=O)N[C@H]1CSCc2cccc(c2)CSC[C@@H](C(N)=O)NC(=O)[C@H](Cc2ccccc2)NC(=O)[C@H](CCC(N)=O)NC(=O)[C@H]([C@@H](C)O)NC(=O)[C@@H]2CCCN2C(=O)[C@@H]2CCCN2C1=O [3BP-3764, Ac-Aad-[Cys(3MeBn)-Pro-Pro-Thr-Gln-Phe-Cys]-NH2] | > 1000 nM | > 1000 nM |  |  |
| C[C@@H](O)[C@@H]1NC(=O)[C@@H]2CCCN2C(=O)[C@@H]2CCCN2C(=O)[C@@H](NC(=O)C2CCN(C(=O)CN3CCN(CC(=O)O)CCN(CC(=O)O)CCN(CC(=O)O)CC3)CC2)CSCc2cccc(c2)CSC[C@@H](C(=O)N[C@@H](CC(=O)O)C(=O)N[C@@H](Cc2c[nH]cn2)C(=O)N(C)[C@@H](Cc2ccccc2)C(=O)N[C@@H](CCCNC(=N)N)C(=O)N[C@@H](CC(=O)O)C(N)=O)NC(=O)[C@H](Cc2ccccc2)NC(=O)[C@H](CCC(=O)O)NC1=O [3BP-3265, DOTA-Inp-[Cys(3MeBn)-Pro-Pro-Thr-Glu-Phe-Cys]-Asp-His-Nmf-Arg-Asp-NH2] ({DOTA-Inp}-CPPTEFCDH[NMeF]RD-NH2; linker 1-7 via mXylylene) | 100 to 794 nM | 100 to 794 nM |  |  |
| CCCCCC(=O)N[C@H]1CSCc2cccc(c2)CSC[C@@H](C(N)=O)NC(=O)[C@H](Cc2ccc(-c3ccccc3)cc2)NC(=O)[C@H](CCC(=O)O)NC(=O)[C@H]([C@@H](C)O)NC(=O)[C@@H]2CCCN2C(=O)[C@@H]2CCCN2C1=O [3BP-3363, Hex-[Cys(3MeBn)-Pro-Pro-Thr-Glu-Bip-Cys]-NH2] (Hexanoyl-CPPTE[Bip]C-NH2; linker 1-7 via mXylylene) | > 1000 nM | > 1000 nM |  |  |
| CCCCCS(=O)(=O)N[C@H]1CSCc2cc(CSCCNC(=O)CN3CCN(CC(=O)O)CCN(CC(=O)O)CCN(CC(=O)O)CC3)cc(c2)CSC[C@@H](C(=O)O)NC(=O)[C@H](Cc2ccccc2)NC(=O)[C@H](CCC(=O)O)NC(=O)[C@H]([C@@H](C)O)NC(=O)[C@@H]2CCCN2C(=O)[C@@H]2CCCN2C1=O [3BP-3691, Pentyl-SO2-[Cys(tMeBn(DOTA-AET))-Pro-Pro-Thr-Glu-Phe-Cys]-OH] (Pentanesulfonyl-CPPTEFC-OH; linker 1-7 via TBMB(SCH2CH2NH-DOTA)) | < 10 nM | 10 to 79.4 nM |  |  |
| CCCCCC(=O)N[C@H]1CSCc2cc(CSCCNC(=O)COc3ccc4nc3CN(CC(=O)O)CCN(CC(=O)O)CCN(CC(=O)O)C4)cc(c2)CSCC(C(=O)O)NC(=O)[C@H](Cc2ccccc2)NC(=O)[C@H](CCC(N)=O)NC(=O)[C@H]([C@@H](C)O)NC(=O)[C@@H]2CCCN2C(=O)[C@@H]2CCCN2C1=O (stereo partly drawn) [3BP-5273, Hex-[Cys(tMeBn(AcPCTA-AET))-Pro-Pro-Thr-Gln-Phe-Cys]-OH] | < 10 nM |  | < 10 nM |  |
| CCCCCC(=O)N[C@H]1CSCc2cccc(c2)CSC[C@@H](C(N)=O)NC(=O)[C@@H]2Cc3ccccc3CN2C(=O)[C@H](CCC(=O)O)NC(=O)[C@H]([C@@H](C)O)NC(=O)[C@@H]2CCCN2C(=O)[C@@H]2CCCN2C1=O [3BP-3359, Hex-[Cys(3MeBn)-Pro-Pro-Thr-Glu-Tic-Cys]-NH2] (Hexanoyl-CPPTE[Tic]C-NH2; linker 1-7 via mXylylene) | > 1000 nM | 100 to 794 nM |  |  |
| CCCC[C@H](NC(=O)[C@H](CCC(=O)NC[C@H](O)[C@@H](O)[C@H](O)[C@H](O)CO)NC(=O)CCC(=O)NCCCOCCOCCOCCCNC(=O)C(CNCCN)CNCCN)C(=O)N[C@H]1CSCc2cccc(c2)CSC[C@@H](C(=O)O)NC(=O)[C@H](Cc2ccccc2)NC(=O)[C@H](CCC(N)=O)NC(=O)[C@H]([C@@H](C)O)NC(=O)[C@@H]2CCCN2C(=O)[C@@H]2CCCN2C1=O [3BP-4248, N4Ac-Ttds-Glu(AGLU′)-Nle-[Cys-(3MeBn)-Pro-Pro-Thr-Gln-Phe-Cys]-OH] | > 1000 nM |  |  | > 1000 nM |
| CSCC[C@H](NC(C)=O)C(=O)N[C@H]1CSCc2cccc(c2)CSC[C@@H](C(=O)N[C@@H](CC(=O)O)C(=O)N[C@@H](Cc2c[nH]cn2)C(=O)N[C@@H](Cc2ccccc2)C(=O)N[C@@H](CCCNC(=N)N)C(=O)N[C@@H](CC(=O)O)C(N)=O)NC(=O)[C@H](Cc2ccccc2)NC(=O)[C@H](CCC(=O)O)NC(=O)[C@H]([C@@H](C)O)NC(=O)[C@@H]2CCCN2C(=O)[C@@H]2C[C@@H]3CCCC[C@@H]3N2C1=O [3BP-3216, Ac-Met-[Cys(3MeBn)-Oic-Pro-Thr-Glu-Phe-Cys]-Asp-His-Phe-Arg-Asp-NH2] (Ac-MC[Oic]PTEFCDHFRD-NH2; linker 2-8 via mXylylene) | 100 to 794 nM | 100 to 794 nM |  |  |
| CC(C)C[C@H](NC(=O)CCC(=O)NCCCOCCOCCOCCCNC(=O)CN1CCN(CC(=O)O)CCN(CC(=O)O)CCN(CC(=O)O)CC1)C(=O)N[C@H]1CSCc2cccc(c2)CSC[C@@H](C(=O)N[C@@H](CC(=O)O)C(=O)N[C@@H](Cc2c[nH]cn2)C(=O)N[C@@H](Cc2ccccc2)C(=O)N[C@@H](CCCNC(=N)N)C(=O)N[C@@H](CC(=O)O)C(N)=O)NC(=O)[C@H](Cc2ccccc2)NC(=O)[C@H](CCC(=O)O)NC(=O)[C@H]([C@@H](C)O)NC(=O)[C@@H]2CCCN2C(=O)[C@@H]2CCCN2C1=O [3BP-3172, DOTA-Ttds-Leu-[Cys(3MeBn)-Pro-Pro-Thr-Glu-Phe-Cys]-Asp-His-Phe-Arg-Asp-NH2] ({X12-Suc}-LCPPTEFCDHFRD-NH2; linker 2-8 via mXylylene) | < 10 nM | < 10 nM |  |  |
| C[C@@H](O)[C@@H]1NC(=O)[C@@H]2CCCN2C(=O)[C@@H]2CCCN2C(=O)[C@@H](NC(=O)C2CCCC2)CSCc2cc(CSCCNC(=O)CN3CCN(CC(=O)O)CCN(CC(=O)O)CCN(CC(=O)O)CC3)cc(c2)CSC[C@@H](C(=O)O)NC(=O)[C@H](Cc2ccccc2)NC(=O)[C@H](CCC(N)=O)NC1=O [3BP-3909, Cp-[Cys(tMeBn(DOTA-AET))-Pro-Pro-Thr-Gln-Phe-Cys]-OH] | 10 to 79.4 nM |  |  | 10 to 79.4 nM |
| CCCC[C@H](NC(=O)CCNC(=O)CCOCCOCCOCCOCCOCCOCCNC(=O)C(CNCCN)CNCCN)C(=O)N[C@H]1CSCc2cccc(c2)CSC[C@@H](C(=O)O)NC(=O)[C@H](Cc2ccccc2)NC(=O)[C@H](CCC(=O)O)NC(=O)[C@H]([C@@H](C)O)NC(=O)[C@@H]2CCCN2C(=O)[C@@H]2CCCN2C1=O [3BP-4779, N4Ac-PEG6-Bal-Nle-[C(3MeBn)-PPTEFC]-OH] ({X2-PEG6-βAla}-[Nle]CPPTEFC-OH; linker 2-8 via mXylylene) | 100 to 794 nM |  | > 1000 nM |  |
| CCCC[C@H](NC(=O)CCC(=O)NCCCOCCOCCOCCCNC(=O)CN1CCN(CC(=O)O)CCN(CC(=O)O)CCN(CC(=O)O)CC1)C(=O)N[C@H]1CSCc2cc(CSCCNC(=O)CN3CCN(CC(=O)O)CCN(CC(=O)O)CCN(CC(=O)O)CC3)cc(c2)CSC[C@@H](C(=O)N[C@@H](CC(=O)O)C(=O)NCCCOCCOCCOCCCNC(=O)CCC(=O)N[C@@H](CCCCNC(=O)CN2CCN(CC(=O)O)CCN(CC(=O)O)CCN(CC(=O)O)CC2)C(N)=O)NC(=O)[C@H](Cc2ccccc2)NC(=O)[C@H](CCC(N)=O)NC(=O)[C@H]([C@@H](C)O)NC(=O)[C@@H]2CCCN2C(=O)[C@@H]2CCCN2C1=O [3BP-4392, DOTA-Ttds-Nle-[Cys(tMeBn(DOTA-AET))-Pro-Pro-Thr-Gln-Phe-Cys]-Asp-Ttds-Lys(DOTA)-NH2] | 10 to 79.4 nM |  |  | 10 to 79.4 nM |
| C[C@@H](O)[C@@H]1NC(=O)[C@@H]2CCCN2C(=O)[C@@H]2CCCN2C(=O)[C@@H](NC(=O)CCCC(=O)O)CSCc2cccc(c2)CSC[C@@H](C(N)=O)NC(=O)[C@H](Cc2ccccc2)NC(=O)[C@H](CCC(N)=O)NC1=O [3BP-3765, HO-Glutar-[Cys(3MeBn)-Pro-Pro-Thr-Gln-Phe-Cys]-NH2] | 100 to 794 nM | 100 to 794 nM |  |  |
| CCCCCC(=O)N[C@H]1CSCc2cc(cc(CN3CCN(C(=O)CN4CCN(CC(=O)O)CCN(CC(=O)O)CCN(CC(=O)O)CC4)CC3)c2)CSC[C@@H](C(=O)N[C@@H](CC(=O)O)C(N)=O)NC(=O)[C@@H]2CCCN2C(=O)[C@@H]2CCCN2C(=O)[C@H]([C@@H](C)O)NC(=O)[C@H](CCC(N)=O)NC(=O)[C@H](Cc2ccccc2)NC1=O [3BP-3855, Hex-[Cys(tMeBn(DOTA-PP))-Phe-Gln-Thr-Pro-Pro-Cys]-Asp-NH2] (Hexanoyl-CFQTPPCD-NH2; linker 1-7 via X13) | > 1000 nM | > 1000 nM |  |  |
| CCCC[C@H](NC(=O)CCC(=O)NCCCOCCOCCOCCCNC(=O)CCC(C(=O)O)N1CCN(CC(=O)O)CCN(CC(=O)O)CC1)C(=O)N[C@H]1CSCc2cccc(c2)CSCC(C(N)=O)NC(=O)[C@H](Cc2ccccc2)NC(=O)[C@H](CCC(=O)O)NC(=O)[C@H]([C@@H](C)O)NC(=O)[C@@H]2CCCN2C(=O)[C@@H]2CCCN2C1=O (stereo partly drawn) [3BP-4743, NODAGA-Ttds-Nle-[Cys(3MeBn)-Pro-Pro-Thr-Glu-Phe-Cys]-NH2] ({X10-Suc}-[Nle]CPPTEF[ξC]-NH2; linker 2-8 via mXylylene) | 10 to 79.4 nM |  | 10 to 79.4 nM |  |
| CCCCCC(=O)N[C@H]1CSCc2cc(cc(CN3CCN(C(=O)CN4CCN(CC(=O)O)CCN(CC(=O)O)CCN(CC(=O)O)CC4)CC3)c2)CSC[C@@H](C(=O)N[C@@H](CC(=O)O)C(N)=O)NC(=O)[C@H](Cc2ccccc2)NC(=O)[C@H](C)NC(=O)[C@H](C)NC(=O)[C@@H]2CCCN2C(=O)[C@@H]2CCCN2C1=O [3BP-3746, Hex-[Cys(tMeBn(DOTA-PP))-Pro-Pro-Ala-Ala-Phe-Cys]-Asp-NH2] (Hexanoyl-CPPAAFCD-NH2; linker 1-7 via X13) | > 1000 nM | 100 to 794 nM |  |  |
